Test results from patent publication US8586755B2, “Substituted nicotinamides as KCNQ2/3 modulators” (Grünenthal GmbH, priority 2009, dated 2013).

How the values were obtained:
Sprague-Dawley rats = experiment: Low-intensity tail flick in the rat; assay type: in vivo; details: for inhibition in vivo at 10 mg/kg / inhibition in vivo at 21.5 mg/kg / ED50 / inhibition in vivo at 4.64 mg/kg: po; for inhibition in vivo at 10 mg/kg / inhibition in vivo at 21.5 mg/kg / inhibition in vivo at 4.64 mg/kg: read-out: Low-intensity tail flick rat p.o. % effect (dose [mg/kg])
Excerpt: Low-Intensity Tail Flick in the Rat
The antinociceptive effectiveness of the test substance towards an acute, noxious thermal stimulus was studied in the focal ray (tail flick) test in the rat according to the method of D'Amour and Smith (J. Pharm. Exp. Ther. 72, 74 79 (1941)). Male Sprague-Dawley rats (breeder: Janvier, Le Genest St. Isle, France) weighing from 200 to 250 g were used for this purpose. The animals were accommodated individually in special test compartments and the base of the tail was exposed to the focused ray of an analgesia meter (model 2011, Rhema Labortechnik, Hofheim, Germany). 10 animals were used per group. Before a substance according to the invention was administered, the withdrawal latency (time from switching on of the focal ray to the sudden withdrawal of the tail) was determined twice at an interval of five minutes and the mean value was defined as the control latency time. The intensity of the focal ray was chosen so that the control latency time was 7 to 9 seconds. Measurement of the withdrawal latency was then repeated 10, 20, 30 and 60 minutes after peroral administration of substance. The antinociceptive action of the test substance was determined as the increase in the withdrawal latency time according to the following formula: MPE[%]=[(T1−T0)/(T2−T0)]×100 where: T0=control latency time before administration of substance, T1=latency time after administration of substance, T2=maximum exposure time to the focal ray (30 seconds), MPE=maximum possible effect.
Variance analysis (repeated measures ANOVA) was used to test for statistically significant differences between the substance group and the vehicle group. The level of significance was set at ≦0.05.

KCNQ2/3 channels = target: T1, KCNQ2/3 channels (Homo sapiens, UniProt O43525+O43526); experiment: Fluorescence assay using a voltage sensitive dye (fluorimetry); assay type: cell-based; details: CHO-K1 cells expressing KCNQ2/3 channels; for EC50: agonistic activity; for Emax / Fluorimetry % efficacy (retigabine 50 μM = 100%): retigabine 50 μM = 100%; for Emax: read-out: Fluorimetry % efficacy (retigabine 50 μM = 100%)
T1 construct: expressed in transfected cells
In short: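 Agonist EC50s come from the F2 vs F1 fluorescence comparison, F2 taken at the peak after KCl depolarisation (92 mM final) and F1 after 30 min compound exposure at room temperature. Assay uses KCNQ2/3-expressing CHO-K1 cells stained 45 min with a red voltage-sensitive dye in pH 7.4 ES buffer.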

| SMILES | EC50 (KCNQ2/3 channels) [nM] | Emax (KCNQ2/3 channels) [%] | inhibition in vivo at 10 mg/kg (Sprague-Dawley rats; MPE) [%] | further results |
| --- | --- | --- | --- | --- |
| O=C(NCc1ccc(F)cc1)c1cccnc1SCCCc1ccc(F)cc1 [compound 65, N-[(4-Fluorophenyl)-methyl]-2-[3-(4-fluorophenyl)-propylsulfanyl]-pyridine-3-carboxylic acid amide] | 40 | 97 | 49 | – |
| CC(CCc1cccc(C(F)(F)F)c1)Sc1ncccc1C(=O)NCc1cccs1 (stereo not drawn) [compound 107, 2-[[1-Methyl-3-[3-(trifluoromethyl)phenyl]-propyl]sulfanyl]-N-(thiophen-2-yl-methyl)-pyridine-3-carboxylic acid amide] | 57 | 119 | – | inhibition in vivo at 21.5 mg/kg (Sprague-Dawley rats; dose 21.5 mg/kg, MPE): 20% |
| O=C(NCc1ccc(F)cc1)c1cccnc1SCCC(F)(F)c1ccc(F)cc1 [compound 124, 2-[[3,3-Difluoro-3-(4-fluorophenyl)-propyl]sulfanyl]-N-[(4-fluorophenyl)-methyl]-pyridine-3-carboxylic acid amide] | 17 | 114 | – | ED50 (Sprague-Dawley rats): 3.5 mg/kg |
| CC(C)CCNC(=O)c1cccnc1SCCCc1ccc(F)cc1 [compound 133, 2-[3-(4-Fluorophenyl)-propylsulfanyl]-N-(3-methyl-butyl)-pyridine-3-carboxylic acid amide] | 106 | 185 | 61 | – |
| O=C(NCC1CCCCO1)c1cccnc1SCCCc1ccc(F)cc1 (stereo not drawn) [compound 134, 2-[3-(4-Fluorophenyl)-propylsulfanyl]-N-(tetrahydro-pyran-2-yl-methyl)-pyridine-3-carboxylic acid amide] | 268 | 224 | – | inhibition in vivo at 21.5 mg/kg (Sprague-Dawley rats; dose 21.5 mg/kg, MPE): 40% |
| CC(C)CCNC(=O)c1cccnc1SCCC(F)(F)c1ccc(F)cc1 [compound 169] | 19 | – | – | Low-intensity tail flick rat p.o. ED50 (Sprague-Dawley rats): ED50 2.7 mg/kg; Fluorimetry % efficacy (retigabine 50 μM = 100%) (KCNQ2/3 channels): 224% |
| CCCCNC(=O)c1cccnc1SCCC(F)(F)c1ccc(F)cc1 [compound 170, N-Butyl-2-[[3,3-difluoro-3-(4-fluorophenyl)-propyl]sulfanyl]-pyridine-3-carboxylic acid amide] | 24 | 229 | – | inhibition in vivo at 4.64 mg/kg (Sprague-Dawley rats; MPE): 20% |
| O=C(NCc1ccc(F)cc1)c1cccnc1SCCCc1cccc(C(F)(F)F)c1 [compound 207, N-[(4-Fluorophenyl)-methyl]-2-[3-[3-(trifluoromethyl)phenyl]-propylsulfanyl]-pyridine-3-carboxylic acid amide] | 34 | 119 | – | – |
| CC(C)CCNC(=O)c1cccnc1SCCC(F)(F)c1ccc(F)c(F)c1 [compound 209, 2-[[3-(3,4-Difluoro-phenyl)-3,3-difluoro-propyl]sulfanyl]-N-(3-methyl-butyl)-pyridine-3-carboxylic acid amide] | 9 | 228 | – | – |
| O=C(NCCO)c1cccnc1SCCC(F)(F)c1ccc(F)cc1 [compound 211, 2-[[3,3-Difluoro-3-(4-fluorophenyl)-propyl]sulfanyl]-N-(2-hydroxy-ethyl)-pyridine-3-carboxylic acid amide] | 8830 | 87 | – | – |

Further compounds by falling EC50 (KCNQ2/3 channels), results first:

| EC50 (KCNQ2/3 channels) [nM] | Emax (KCNQ2/3 channels) [%] | SMILES | inhibition in vivo at 10 mg/kg (Sprague-Dawley rats; MPE) [%] | further results |
| --- | --- | --- | --- | --- |
| 302 | 220 | O=C(NCC1CC2CCC1C2)c1cccnc1SCCCc1ccc(C(F)(F)F)c(F)c1 (stereo not drawn) [compound 53, N-(5-Bicyclo[2.2.1]heptanyl-methyl)-2-[3-[3-fluoro-4-(trifluoromethyl)-phenyl]-propylsulfanyl]-pyridine-3-carboxylic acid amide] | 0 | – |
| 198 | – | O=C(NCC1CC2CCC1C2)c1cccnc1SCCCc1ccc(F)cc1 (stereo not drawn) [compound 51] | – | Low-intensity tail flick rat p.o. % effect (dose [mg/kg]) (Sprague-Dawley rats; dose 21.5 mg/kg, MPE): 49 (21.5) %; Fluorimetry % efficacy (retigabine 50 μM = 100%) (KCNQ2/3 channels): 192% |
| 133 | 240 | O=C(NCC1CC2CCC1C2)c1cccnc1SCCCc1ccc(F)c(C(F)(F)F)c1 (stereo not drawn) [compound 54, N-(5-Bicyclo[2.2.1]heptanyl-methyl)-2-[3-[4-fluoro-3-(trifluoromethyl)-phenyl]-propylsulfanyl]-pyridine-3-carboxylic acid amide] | 20 | – |
| 129 | 144 | O=C(NCC1CCCCC1)c1cccnc1SCCCc1ccc(F)cc1 [compound 40, N-(Cyclohexyl-methyl)-2-[3-(4-fluorophenyl)-propylsulfanyl]-pyridine-3-carboxylic acid amide] | – | inhibition in vivo at 21.5 mg/kg (Sprague-Dawley rats; dose 21.5 mg/kg, MPE): 26% |
| 85 | 210 | O=C(NCC1CC2CCC1C2)c1cccnc1SCCCc1cccc(C(F)(F)F)c1 (stereo not drawn) [compound 27, N-(5-Bicyclo[2.2.1]heptanyl-methyl)-2-[3-[3-(trifluoromethyl)phenyl]-propylsulfanyl]-pyridine-3-carboxylic acid amide] | 18 | – |
| 65 | 280 | O=C(NCC1CC2CCC1C2)c1cccnc1SCCCc1cc(F)c(F)c(F)c1 (stereo not drawn) [compound 68, N-(5-Bicyclo[2.2.1]heptanyl-methyl)-2-[3-(3,4,5-trifluoro-phenyl)-propylsulfanyl]-pyridine-3-carboxylic acid amide] | 32 | – |
| 62 | 186 | CC(C)(C)CCNC(=O)c1cccnc1SCCC(F)(F)c1ccc(F)cc1 [compound 116, 2-[[3,3-Difluoro-3-(4-fluorophenyl)-propyl]sulfanyl]-N-(3,3-dimethyl-butyl)-pyridine-3-carboxylic acid amide] | – | ED50 (Sprague-Dawley rats): 5.4 mg/kg |
| 47 | 224 | O=C(NCC1CCCCO1)c1cccnc1SCCC(F)(F)c1ccc(F)cc1 (stereo not drawn) [compound 180, 2-[[3,3-Difluoro-3-(4-fluorophenyl)-propyl]sulfanyl]-N-(tetrahydro-pyran-2-yl-methyl)-pyridine-3-carboxylic acid amide] | 64 | – |
| 40 | 293 | O=C(NCC12CCC(CC1)C2)c1cccnc1SCCCc1ccc(F)cc1 [compound 206, N-(1-Bicyclo[2.2.1]heptanyl-methyl)-2-[3-(4-fluorophenyl)-propylsulfanyl]-pyridine-3-carboxylic acid amide] | – | – |
| 32 | 287 | O=C(NCC1C2CCC1CC2)c1cccnc1SCCC(F)(F)c1ccc(F)cc1 (stereo not drawn) [compound 164, N-(7-Bicyclo[2.2.1]heptanyl-methyl)-2-[[3,3-difluoro-3-(4-fluorophenyl)-propyl]sulfanyl]-pyridine-3-carboxylic acid amide] | – | inhibition in vivo at 4.64 mg/kg (Sprague-Dawley rats; MPE): 20% |
| 27 | 207 | CC(C)CCNC(=O)c1cccnc1SCCCc1cccc(C(F)(F)F)c1 [compound 208, N-(3-Methyl-butyl)-2-[3-[3-(trifluoromethyl)phenyl]-propylsulfanyl]-pyridine-3-carboxylic acid amide] | – | – |
| 14 | 276 | O=C(NCC1C2CCC1CC2)c1cccnc1SCCC(F)(F)c1ccc(F)c(F)c1 (stereo not drawn) [compound 210, N-(7-Bicyclo[2.2.1]heptanyl-methyl)-2-[[3-(3,4-difluoro-phenyl)-3,3-difluoro-propyl]sulfanyl]-pyridine-3-carboxylic acid amide] | – | – |
